Test system: Transport facilitation protein genes
Assay: DNA chip mRNA expression in yeast, transport facilitation protein genes (Table 5)
Type: cell-based, Saccharomyces cerevisiae S288C
Method in brief: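 Ratios compare mRNA levels in stressed and control S. cerevisiae. Each toxicant was applied for two hours to log-phase cultures at 25° C. at a sub-lethal, growth-inhibiting level; fluorescent cDNA (Cy3- or Cy5-dUTP) was hybridized to a genome-wide yeast chip for over 12 h at 65° C.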

N#Cc1c(Cl)c(Cl)c(Cl)c(C#N)c1Cl [(9), 2,4,5,6-tetrachloro-1,3-benzenedicarbonitrile]
The level of expressed mRNA in the presence of chemical substance/The level of expressed mRNA in the absence of chemical substance (yeast gene YBL030C): 0.4
The level of expressed mRNA in the presence of chemical substance/The level of expressed mRNA in the absence of chemical substance (yeast gene YBL099W): 0.9
The level of expressed mRNA in the presence of chemical substance/The level of expressed mRNA in the absence of chemical substance (yeast gene YBR052C): 2.3
The level of expressed mRNA in the presence of chemical substance/The level of expressed mRNA in the absence of chemical substance (yeast gene YBR068C): 0.8
The level of expressed mRNA in the presence of chemical substance/The level of expressed mRNA in the absence of chemical substance (yeast gene YBR127C): 0.6
The level of expressed mRNA in the presence of chemical substance/The level of expressed mRNA in the absence of chemical substance (yeast gene YBR132C): 0.8
The level of expressed mRNA in the presence of chemical substance/The level of expressed mRNA in the absence of chemical substance (yeast gene YBR207W): 1.7
The level of expressed mRNA in the presence of chemical substance/The level of expressed mRNA in the absence of chemical substance (yeast gene YBR293W): 5.5
The level of expressed mRNA in the presence of chemical substance/The level of expressed mRNA in the absence of chemical substance (yeast gene YBR294W): 5.2
The level of expressed mRNA in the presence of chemical substance/The level of expressed mRNA in the absence of chemical substance (yeast gene YBR295W): 1.2
The level of expressed mRNA in the presence of chemical substance/The level of expressed mRNA in the absence of chemical substance (yeast gene YBR298C): 0.3
The level of expressed mRNA in the presence of chemical substance/The level of expressed mRNA in the absence of chemical substance (yeast gene YCL025C): 0.3
The level of expressed mRNA in the presence of chemical substance/The level of expressed mRNA in the absence of chemical substance (yeast gene YCL038C): 1.1
The level of expressed mRNA in the presence of chemical substance/The level of expressed mRNA in the absence of chemical substance (yeast gene YCR024C-A): 0.2
The level of expressed mRNA in the presence of chemical substance/The level of expressed mRNA in the absence of chemical substance (yeast gene YCR037C): 0.6
The level of expressed mRNA in the presence of chemical substance/The level of expressed mRNA in the absence of chemical substance (yeast gene YCR098C): 1.4
The level of expressed mRNA in the presence of chemical substance/The level of expressed mRNA in the absence of chemical substance (yeast gene YDL128W): 0.5
The level of expressed mRNA in the presence of chemical substance/The level of expressed mRNA in the absence of chemical substance (yeast gene YDL198C): 1.9
The level of expressed mRNA in the presence of chemical substance/The level of expressed mRNA in the absence of chemical substance (yeast gene YDL210W): 1.2
The level of expressed mRNA in the presence of chemical substance/The level of expressed mRNA in the absence of chemical substance (yeast gene YDL245C): 0.4
The level of expressed mRNA in the presence of chemical substance/The level of expressed mRNA in the absence of chemical substance (yeast gene YDR038C): 1.4
The level of expressed mRNA in the presence of chemical substance/The level of expressed mRNA in the absence of chemical substance (yeast gene YDR039C): 1.8
The level of expressed mRNA in the presence of chemical substance/The level of expressed mRNA in the absence of chemical substance (yeast gene YDR086C): 0.6
The level of expressed mRNA in the presence of chemical substance/The level of expressed mRNA in the absence of chemical substance (yeast gene YDR270W): 2.9
The level of expressed mRNA in the presence of chemical substance/The level of expressed mRNA in the absence of chemical substance (yeast gene YDR298C): 1.0
The level of expressed mRNA in the presence of chemical substance/The level of expressed mRNA in the absence of chemical substance (yeast gene YDR342C): 0.2
The level of expressed mRNA in the presence of chemical substance/The level of expressed mRNA in the absence of chemical substance (yeast gene YDR343C): 0.3
The level of expressed mRNA in the presence of chemical substance/The level of expressed mRNA in the absence of chemical substance (yeast gene YDR345C): 0.2
The level of expressed mRNA in the presence of chemical substance/The level of expressed mRNA in the absence of chemical substance (yeast gene YDR387C): 1.4
The level of expressed mRNA in the presence of chemical substance/The level of expressed mRNA in the absence of chemical substance (yeast gene YDR497C): 0.4
The level of expressed mRNA in the presence of chemical substance/The level of expressed mRNA in the absence of chemical substance (yeast gene YEL027W): 0.9
The level of expressed mRNA in the presence of chemical substance/The level of expressed mRNA in the absence of chemical substance (yeast gene YEL063C): 0.8
The level of expressed mRNA in the presence of chemical substance/The level of expressed mRNA in the absence of chemical substance (yeast gene YEL065W): 0.1
The level of expressed mRNA in the presence of chemical substance/The level of expressed mRNA in the absence of chemical substance (yeast gene YER053C): 1.3
The level of expressed mRNA in the presence of chemical substance/The level of expressed mRNA in the absence of chemical substance (yeast gene YFL011W): 0.3
The level of expressed mRNA in the presence of chemical substance/The level of expressed mRNA in the absence of chemical substance (yeast gene YFL041W): 0.8
The level of expressed mRNA in the presence of chemical substance/The level of expressed mRNA in the absence of chemical substance (yeast gene YFL050C): 0.5
The level of expressed mRNA in the presence of chemical substance/The level of expressed mRNA in the absence of chemical substance (yeast gene YFL054C): 2.0
The level of expressed mRNA in the presence of chemical substance/The level of expressed mRNA in the absence of chemical substance (yeast gene YGL006W): 3.0
The level of expressed mRNA in the presence of chemical substance/The level of expressed mRNA in the absence of chemical substance (yeast gene YGL008C): 0.0
The level of expressed mRNA in the presence of chemical substance/The level of expressed mRNA in the absence of chemical substance (yeast gene YGL104C): 4.6
The level of expressed mRNA in the presence of chemical substance/The level of expressed mRNA in the absence of chemical substance (yeast gene YGL167C): 1.3
The level of expressed mRNA in the presence of chemical substance/The level of expressed mRNA in the absence of chemical substance (yeast gene YGL255W): 0.3
The level of expressed mRNA in the presence of chemical substance/The level of expressed mRNA in the absence of chemical substance (yeast gene YGR055W): 5.0
The level of expressed mRNA in the presence of chemical substance/The level of expressed mRNA in the absence of chemical substance (yeast gene YGR065C): 1.2
The level of expressed mRNA in the presence of chemical substance/The level of expressed mRNA in the absence of chemical substance (yeast gene YGR082W): 0.6
The level of expressed mRNA in the presence of chemical substance/The level of expressed mRNA in the absence of chemical substance (yeast gene YGR096W): 0.8
The level of expressed mRNA in the presence of chemical substance/The level of expressed mRNA in the absence of chemical substance (yeast gene YGR138C): 0.5
The level of expressed mRNA in the presence of chemical substance/The level of expressed mRNA in the absence of chemical substance (yeast gene YGR191W): 0.1
The level of expressed mRNA in the presence of chemical substance/The level of expressed mRNA in the absence of chemical substance (yeast gene YGR197C): 16.7
The level of expressed mRNA in the presence of chemical substance/The level of expressed mRNA in the absence of chemical substance (yeast gene YGR224W): 0.9

Source: US8192962B2, “Processes for detecting toxic substances” (Daikin Industries, Ltd., priority 2001, dated 2012)
